How the values were obtained:
[1] = system: A375 cells expressing the MEK1 C121S mutation; assay: Growth inhibition of A375 melanoma cells transfected with MEK1 C121S mutant; format: cell-based; conditions: for resistance of cells to the inhibitor (in words): A375 cells expressing MEK1 C121S, growth inhibition; for fold greater GI-50 value of MEK1 C121S cells: versus wild-type A375 cells or A375 cells expressing MEK-WT (for AZD6244 also MEK-DD)
From the text: FIGS. 1A and 1B are graphs showing the percent growth inhibition of A375 melanoma cells treated with increasing concentrations (in μM) of either the BRAF inhibitor PLX4720 (FIG. 1A) or the MEK1 inhibitor AZD6244 (FIG. 1B), wherein the A375 cells were either untransfected (A375), transfected with wild-type MEK1 (MEK-WT), transfected with the MEK1 C121S mutant (MEK-C121S) or transfected with a constitutively active MEK variant (MEK-DD).
It has previously been shown that mutations proximal to the C-helix of MEK1 can confer resistance to BRAF inhibition by PLX4032 by upregulating intrinsic MEK1 kinase activity (Emery, C. M. et al., (2009) Proc. Natl. Acad. Sci. USA 106:20411-20416). Therefore, it seemed plausible that the MEK1 C121 mutation, which is also located proximal to the C-helix, might have caused resistance to PLX4032 in the patient's recurrent tumor. To test this, the C121S was introduced mutation into the sequence of wild-type MEK1 and the mutant cDNA was expressed in the A375 melanoma cell line, which harbors a BRAF V600E mutation. To introduce the […] mutation into the wild-type MEK1 sequence, MEK1 site-directed mutagenesis was performed as previously described (Emery, C. M. et al., (2009) Proc. Natl. Acad. Sci. USA […]). Briefly, MEK1 cDNA was amplified by PCR and site-directed mutagenesis was conducted using Quick-Change II (Stratagene) as per the manufacturer's instructions. As controls, the wild-type MEK1 sequence or a constitutively active variant of MEK1, referred to as MEK1-DD, was expressed in the A375 melanoma cells.
To examine the effect of the MEK1 C121S mutation on responsiveness of the A375 melanoma cells to inhibitors, A375 cells (either untransfected cells, or cells transfected with either the wild-type MEK1, the C121S mutant MEK1, or the constitutively active variant MEK1-DD) were treated with increasing amounts of either the BRAF inhibitor PLX4720 (purchased from Symansis, Inc.), which is a compound closely related to PLX4032, or the MEK1 inhibitor AZD6244 (purchased from Selleck Chemical Co., Ltd.). The results are shown in the graphs of FIGS. 1A (PLX4720 treatment) and 1B (AZD6244 treatment).

[2] = system: human colon cancer xenograft; conditions: cited from earlier work
MEK = conditions: cited from earlier work
[3] = system: melanoma with BRAF V600E mutations; conditions: cited from earlier work
[4] = system: metastatic melanoma with BRAF V600E mutation; assay: Case of a patient with BRAF V600E metastatic melanoma treated with PLX4032 in a clinical trial; format: in vivo, human; conditions: single patient
Procedure: The patient was a person who was diagnosed with metastatic melanoma in February 2009. […] They were treated with several therapeutic regimens with minimal clinical response. By October 2009, the patient had developed numerous subcutaneous metastatic deposits.
In late February 2010, after 4 months of therapy with PLX4032, the patient rapidly developed new subcutaneous nodules all over their body and PLX4032 was stopped. At this point, they provided written informed consent and a percutaneous core biopsy of a recurrent subcutaneous nodule on the chest was obtained. In order to determine possible mechanisms of resistance to PLX4032 in this tumor, the exons from 138 cancer genes from this sample were sequenced using massively parallel sequencing. The patient continued to have rapid progression of their disease and died on hospice in March 2010.

Question: Which results are given for `Cn1cnc2c(F)c(Nc3ccc(Br)cc3Cl)c(C(=O)NOCCO)cc21` [AZD6244]?
Answer: resistance of cells to the inhibitor (in words) [1]: strongly resistant; fold greater GI-50 value of MEK1 C121S cells [1]: ~1000 fold

Question: Which “effect on xenograft growth (in words)” value [2] does the source give for `O=C(NOCC1CC1)c1ccc(F)c(F)c1Nc1ccc(I)cc1Cl` [CI-1040] here?
Answer: The value was “reduced human colon cancer xenograft growth”.

Question: And the “MEK inhibition in cell-based assays (in words)” value (MEK)?
Answer: Its value is “inhibited MEK”.

Question: Which “patients with at least 30% tumor response by RECIST criteria” value ([3]; Phase I, 19 of 27 patients, oral) does the source give for `CCCS(=O)(=O)Nc1ccc(F)c(C(=O)c2c[nH]c3ncc(-c4ccc(Cl)cc4)cc23)c1F` [PLX4032] here?
Answer: The value was 70%.

Question: And the “average time to relapse (resistance)” value ([3]; patients treated with PLX4032)?
Answer: Its value is 9 months.

Question: And the “duration of therapy until new subcutaneous nodules developed (relapse)” value [4]?
Answer: The value was 4 months.

Question: What about the “tumor response (in words)” value ([4]; after 15 weeks of therapy) of the same compound?
Answer: Its value is “near complete regression of all visible tumor nodules”.

Question: And the “time to visible partial response” value ([4]; from starting PLX4032)?
Answer: The value was at most 2 weeks.

Question: For `CCCS(=O)(=O)Nc1ccc(F)c(C(=O)c2c[nH]c3ncc(Cl)cc23)c1F` [PLX4720], which “resistance of cells to the inhibitor (in words)” value [1] is on record?
Answer: Its value is “strongly resistant”.

Question: And the “fold greater GI-50 value of MEK1 C121S cells” value [1]?
Answer: The value was 100 fold.

— patent publication US10788496B2, “MEK1 mutation conferring resistance to RAF and MEK inhibitors” (Dana-Farber Cancer Institute, Inc., priority 2010, dated 2020)
